{"source": "patent US12582660B2", "about": "“Inhibitors of the RAS oncoprotein, methods of making and methods of use thereof” (University of Louisville Research Foundation, Inc., priority 2018, dated 2026)", "key": {"[1]": {"target": "recombinant K-RAS12v protein (Homo sapiens, UniProt P01116, G12V)", "sequence (P01116 1-185 isoform P01116-2 G12V)": "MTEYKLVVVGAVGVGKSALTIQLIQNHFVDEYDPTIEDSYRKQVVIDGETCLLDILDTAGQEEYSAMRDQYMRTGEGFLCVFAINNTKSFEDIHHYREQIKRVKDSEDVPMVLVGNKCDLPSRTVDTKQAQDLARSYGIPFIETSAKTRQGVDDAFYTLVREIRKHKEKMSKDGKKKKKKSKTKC", "assay": "Thermofluor direct binding assay", "details": "for Thermofluor curve shift (direct binding): 200 uM compound/5 uM protein, K-RAS12v loaded with gamma GTPS", "experimental": "Direct binding of F3/F3a derivative to recombinant K-RAS protein. Thermofluor assays were performed to assay whether direct interactions could be detected between recombinant K-RAS protein and compound F3, or recombinant K-RAS protein and compound JAB-6-5. Recombinant K-RAS12v protein was loaded with gamma GTPS and used in binding assays with a ratio of: 200 uM compound/5 uM protein. Control compound C4 is targeted at a different protein and was not expected to bind RAS. The results are the derivative of three assays performed in triplicate. […] A predicted kD can be extrapolated from the curve: ˜25 uM at 55.5° C."}, "tumor cells": {"tested_on": "tumor cells", "assay": "3-D soft agar drug screening (cell line not stated)", "format": "cell-based", "experimental": "(§1) The technical process of 3-D culture involves preparing molten agar at 1.6% in culture medium and adding serum to 10%. 1 ml of this agar medium is plated per well in a 12 well plate and allowed to set. This is the bottom agar and prevents any cells added to the well from touching the plastic bottom of the plate, ensuring everything remains suspended. Meanwhile the remaining stock of agar medium is kept at 42° C. to prevent setting. Target cells are then trypsinized into a single cell suspension and mixed with normal medium/drug combination. ⅔ volume molten agar medium is then added and the mixture plated onto the bottom agar. The agar/medium sets as it cools, suspending the cells in a 3D environment. Typically, within 2 weeks, tumor spheres (colonies) will form suspended in the agar. The number of colonies, or even the size, may be counted under an inverted microscope and quantified to assay tumor sphere inhibition.\n(§2) The compounds synthesized were tested in the 3-D soft agar drug screening, including F3, JAB-6-176 and JAB-8-60. All the compounds tested suppressed 3-D soft agar growth, but had little effect on normal 2-D growth. […] In Table 2, below, are listed different cell lines, with the results of testing F3 in the “REMARKS” column. All the cell lines are common and publicly available from the ATCC repository (www.atcc.org/en/Products/Cells_and_Microorganisms/Cell_Lines.aspx). […]"}, "[2]": {"assay": "Normal 2-D growth (cell line not stated)", "format": "cell-based", "experimental": "(§3) The compounds synthesized were tested in the 3-D soft agar drug screening, including F3, JAB-6-176 and JAB-8-60. All the compounds tested suppressed 3-D soft agar growth, but had little effect on normal 2-D growth. […] In Table 2, below, are listed different cell lines, with the results of testing F3 in the “REMARKS” column. All the cell lines are common and publicly available from the ATCC repository (www.atcc.org/en/Products/Cells_and_Microorganisms/Cell_Lines.aspx). NF1 mute are cells with defects in the NF1 gene (a negative regulator of RAS) causing hyper-activation of the wild type form of RAS. The same is true for DAB2IP deficient cells. EGFR+++ cells overexpress the EGFR receptor, which also results in the hyper-activation of wild type RAS,"}, "Mia-Paca-2": {"tested_on": "Mia-Paca-2", "assay": "3-D soft agar drug screening, Mia-Paca-2", "format": "cell-based", "details": "Mia-Paca-2, K12C, Pancreatic", "experimental": "as §1, §2"}, "A549": {"tested_on": "A549", "assay": "3-D soft agar drug screening, A549", "format": "cell-based", "details": "A549, K12S, Lung", "experimental": "as §1, §2"}, "Panc-1": {"tested_on": "Panc-1", "assay": "3-D soft agar drug screening, Panc-1", "format": "cell-based", "details": "Panc-1, K12D, pancreatic", "experimental": "as §1, §2"}, "H1299": {"tested_on": "H1299", "assay": "3-D soft agar drug screening, H1299", "format": "cell-based", "details": "H1299, Hras61, Lung", "experimental": "as §1, §2"}, "CaoV3": {"tested_on": "CaoV3", "assay": "3-D soft agar drug screening, CaoV3", "format": "cell-based", "details": "CaoV3, NF1mute, ovarian", "experimental": "as §1, §2"}, "S462.TY": {"tested_on": "S462.TY", "assay": "3-D soft agar drug screening, S462.TY", "format": "cell-based", "details": "NF1-mute, MPNST", "experimental": "as §1, §2"}, "A375": {"tested_on": "A375", "assay": "3-D soft agar drug screening, A375", "format": "cell-based", "details": "A375, B-RAF mute, melanoma; 2 uM", "experimental": "as §1, §2"}, "HTB-185": {"tested_on": "HTB-185", "assay": "3-D soft agar drug screening, HTB-185", "format": "cell-based", "details": "HTB-185, DAB2IP deficient, Medulloblastoma", "experimental": "as §1, §2"}, "MDA-MB-231": {"tested_on": "MDA-MB-231", "assay": "3-D soft agar drug screening, MDA-MB-231", "format": "cell-based", "details": "MDA-MB-231, Kras13D and deficient for NF1, Breast; cells don't grow well in soft agar", "experimental": "as §1, §2"}, "SK-RC-45": {"tested_on": "SK-RC-45", "assay": "3-D soft agar drug screening, SK-RC-45", "format": "cell-based", "details": "SK-RC-45, EGFR++++, kidney", "experimental": "as §1, §2"}, "HL-60": {"tested_on": "HL-60", "assay": "Suspension culture growth, HL-60", "format": "cell-based", "details": "HL-60, NRASQ61L, AML", "experimental": "as §3"}, "[3]": {"tested_on": "A549 K-RAS driven lung tumor cell line", "assay": "Normal growth/survival in 2-D culture on plastic, A549", "format": "cell-based", "details": "10 uM", "experimental": "(§4) Effects of the small molecule on growth in soft agar of A549 K-RAS driven lung tumor cell line and K-RAS driven pancreatic cancer cell line MiaPaCa-2 is shown. 0=carrier (DMSO). P values are less than 0.05, FIG. 5 and FIG. 6 show the effects of 10 uM of F3 on normal growth/survival in 2-D culture on plastic of the same cells. […] FIG. 7 is a graph showing that F3 is also effective against wild-type driven tumor cells, while FIG. 8 is a graph showing normal growth/survival in 2-D culture on plastic of the same cells."}, "[4]": {"tested_on": "K-RAS driven pancreatic cancer cell line MiaPaCa-2", "assay": "Normal growth/survival in 2-D culture on plastic, MiaPaCa-2", "format": "cell-based", "details": "10 uM", "experimental": "as §4"}, "[5]": {"tested_on": "wild-type RAS driven tumor cells", "assay": "Soft agar growth of wild-type RAS driven tumor cells", "format": "cell-based", "experimental": "as §4"}, "Mia-Paca-2 cells": {"tested_on": "Mia-Paca-2 cells", "assay": "Anoikis assay on polyHEMA treated wells, trypan blue exclusion", "format": "cell-based", "details": "after 48 hours", "experimental": "RAS activation leads to resistance to anoikis and inhibiting RAS function re-sensitizes […] cells to anoikis. The RAS/RalGDS pathway has been implicated as a significant component of RAS mediated anoikis suppression. […] After 48 hours the cultures were assayed for cell death by trypan blue exclusion."}, "[6]": {"tested_on": "NCI-H441 (Lung cancer) xenograft tumors", "assay": "Tumor inhibition of xenografts, NCI-H441", "format": "in vivo", "details": "NCI-H441 xenograft in NRG mice", "experimental": "(§5) Compound F3 was tested in vivo, using cell line xenograft tumors in NRG mice. Cell lines used included Mia-Paca-2 (Pancreatic cancer), and NCI-H441 (Lung cancer). […] The results for Mia-Paca-2 are shown in FIG. 14 and FIG. 15 ([…] treated with DMSO/PBS (carrier) or F3 drug at 12 mg/kg every three days)."}, "[7]": {"tested_on": "Mia-Paca-2 (Pancreatic cancer) xenograft tumors", "assay": "Tumor inhibition of xenografts, Mia-Paca-2", "format": "in vivo, NRG mice", "details": "Mia-Paca-2 xenograft; 12 mg/kg every three days; P value 0.014", "experimental": "as §5"}, "[8]": {"assay": "Preliminary in vivo toxicity assay", "parameters": "species or system NRG mice", "details": "i.p. 10 mg/kg every other day for 2 weeks", "experimental": "A preliminary in vivo toxicity assay was performed on F3. NRG mice were i.p. injected with 10 mg/kg of drug every other day for 2 weeks."}}, "note": "“Also recorded” adds a separate entry of the source.", "data": [{"smiles": "Cc1ccc(NC(=O)CN(C)CC(=O)Nc2cccc(F)c2)cc1S(=O)(=O)N1CCCC1", "note": "[JAB-6-5]", "values": [{"measurement": "Thermofluor curve shift (direct binding)", "setting": "[1]", "value": "significant curve shift"}]}, {"smiles": "CCCc1ccc(NC(=O)CN(C)CC(=O)Nc2cccc(F)c2)cc1S(=O)(=O)N1CCCCCC1", "note": "[JAB-6-176]", "values": [{"measurement": "3-D soft agar growth", "setting": "tumor cells", "value": "suppressed"}, {"measurement": "normal 2-D growth", "setting": "[2]", "value": "little effect"}]}, {"smiles": "Cc1ccc(NC(=O)CN(C)CC(=O)Nc2cccc(F)c2)cc1S(=O)(=O)N1CCCCCC1", "note": "[Compound F3, N-(3-(Azepan-1-ylsulfonyl)-4-methylphenyl)-2-((2-((3-fluorophenyl)amino)-2-oxoethyl)(methyl)amino)-acetamide]", "values": [{"measurement": "Thermofluor curve shift (direct binding)", "setting": "[1]", "value": "significant curve shift"}, {"measurement": "Kd", "setting": "[1]; at 55.5° C., read-out: predicted kD extrapolated from the curve", "value": "~25", "unit": "µM"}, {"measurement": "Soft agar growth", "setting": "Mia-Paca-2", "value": "specific inhibition; also recorded: Soft agar growth inhibited"}, {"measurement": "Soft agar growth", "setting": "A549", "value": "specific inhibition; also recorded: Soft agar growth inhibited"}, {"measurement": "Soft agar growth", "setting": "Panc-1", "value": "Soft agar growth inhibited"}, {"measurement": "Soft agar growth", "setting": "H1299", "value": "Soft agar growth inhibited"}, {"measurement": "Soft agar growth", "setting": "CaoV3", "value": "Soft agar growth inhibited"}, {"measurement": "Soft agar growth", "setting": "S462.TY", "value": "Soft agar growth inhibited"}, {"measurement": "Soft agar growth", "setting": "A375", "value": "10 uM, no effect at 2 uM"}, {"measurement": "Soft agar growth", "setting": "HTB-185", "value": "Soft agar growth inhibited"}, {"measurement": "Soft agar growth", "setting": "MDA-MB-231", "value": "inhibited."}, {"measurement": "Soft agar growth", "setting": "SK-RC-45", "value": "Soft agar growth inhibited"}, {"measurement": "Growth in suspension", "setting": "HL-60", "value": "inhibited"}, {"measurement": "3-D soft agar growth", "setting": "tumor cells", "value": "suppressed"}, {"measurement": "normal 2-D growth", "setting": "[2]", "value": "little effect"}, {"measurement": "cell growth in 2-D culture on plastic", "setting": "[3]", "value": "no effect"}, {"measurement": "cell growth in 2-D culture on plastic", "setting": "[4]", "value": "no effect"}, {"measurement": "Effect against wild-type driven tumor cells", "setting": "[5]", "value": "effective"}, {"measurement": "anoikis (cell death by trypan blue exclusion)", "setting": "Mia-Paca-2 cells", "value": "induced high levels of anoikis"}, {"measurement": "tumor volume as compared to controls", "setting": "[6]", "value": "reduction in tumor volume"}, {"measurement": "tumor volume as compared to controls", "setting": "[7]", "value": "approximately half the volume"}, {"measurement": "signs of pain or distress", "setting": "[8]", "value": "No obvious signs of pain or distress"}, {"measurement": "weight loss", "setting": "[8]", "value": "no weight loss"}]}]}
